Data from patent US20180353483A1, “PHARMACEUTICAL COMPOSITIONS AND METHODS FOR INDOLEAMINE, 2, 3-DIOXYGENASE INHIBITION AND INDICATIONS THEREFOR” (Incyte Corporation, priority 2015, published 2018).
Read-outs that look alike come from different tables or passages of the source.

Experiment: Pharmacokinetics of Compound 1 in combination with MK-3475 in subjects with various cancers
Format: in vivo, human
Experimental: The subjects were not limited to a specific cancers and study include subjects with various cancers. […] One treatment cycle consisted of 21 days. […] Additional subjects were enrolled in a cohort to achieve the minimum of 3 evaluable subjects if dropouts or dose interruptions or reductions occur that result in a subject being non-evaluable for DLTs. […] An additional safety cohort was opened at 100 mg BID in parallel to 300 mg BID being tested. This may also be limited to subjects with melanoma, NSCLC, or specific cancer types from among those included in Phase 1. The RP2D was selected from the evaluated safety expansions.
If a dose was missed by more than 4 hours, that dose was skipped and was resumed at the scheduled time.
Pharmacokinetic samples were obtained at the visits of Cycle 1 Day 1, Cycle 1 Day 8 and Cycle 2 Day 1. […] The exact date and time of the PK blood draws were recorded in the eCRF along with the date and time of the last dose of study drug and details of the last meal preceding the blood draw.
The planned PK time points were used for preliminary PK analyses.

[1] = by dose, 25 mg, first dose, geometric mean
[2] = by dose, 25 mg, first dose, mean ± SD
[3] = by dose, 50 mg BID, steady state C1D8, mean ± SD
[4] = by dose, 100 mg BID, steady state C1D8, mean ± SD
[5] = by dose, 100 mg, first dose, geometric mean

With NS(=O)(=O)NCCNc1nonc1C(=NO)Nc1ccc(F)c(Br)c1 [Compound 1, 4-({2-[(aminosulfonyl)amino]ethyl}amino)-N-(3-bromo-4-fluorophenyl)-N′-hydroxy-1,2,5-oxadiazole-3-carboximidamide] the tmax (Diagnosis TNBC, steady state C1D8, median) was 2.00 h, the CL/F (Dose Reduction By C4D1 subjects (Table 13), steady state C1D8, mean ± SD) was 28.4 ± 11.1 L/h and the tmax (Dose Reduction By C4D1 subjects (Table 13), steady state C1D8, median) was 2.00 h. The CL/F (by dose, 25 mg BID, steady state C1D8, mean ± SD) was 46.2 ± 8.91 L/h, the tmax (by dose, 25 mg BID, steady state C1D8, median) was 1.00 h and the AUC(0-t) [1] was “(0.650) μM * h”. It also gave a Cmax [1] of 199 nM, an AUC(0-t) [2] of 0.711 ± 0.349 µM·h and a Cmax [2] of 231 ± 151 nM. The tmax (by dose, 25 mg, first dose, median) was 2.00 h, the Cmax (by dose, 50 mg BID, steady state C1D8, geometric mean) was 452 nM and the CL/F [3] was 68.8 ± 29.0 L/h. For the same molecule, the Cmax [3] was 502 ± 237 nM, the tmax (by dose, 50 mg BID, steady state C1D8, median) was 2.00 h and the Cmax (by dose, 50 mg, first dose, geometric mean) was 500 nM. The Cmax (by dose, 50 mg, first dose, mean ± SD) was 537 ± 217 nM, the tmax (by dose, 50 mg, first dose, median) was 2.00 h and the Cmax (by dose, 100 mg BID, steady state C1D8, geometric mean) was 806 nM. It also gave a CL/F [4] of 69.1 ± 28.9 L/h, a Cmax [4] of 917 ± 424 nM and a tmax (by dose, 100 mg BID, steady state C1D8, median) of 2.00 h. For the same molecule, the AUC(0-t) [5] was “(2.32) μM * h”, the Cmax [5] was 719 nM and the Cmax (by dose, 100 mg, first dose, mean ± SD) was 803 ± 378 nM. The tmax (by dose, 100 mg, first dose, median) was 2.00 h, the Cmax (by dose, 300 mg BID, steady state C1D8, geometric mean) was 2510 nM and the CL/F (by dose, 300 mg BID, steady state C1D8, mean ± SD) was 64.9 ± 22.7 L/h. The tmax (by dose, 300 mg BID, steady state C1D8, median) was 2.00 h, the Cmax (by dose, 300 mg, first dose, geometric mean) was 2020 nM and the Cmax (by dose, 300 mg, first dose, mean ± SD) was 2290 ± 1230 nM. It also gave a tmax (by dose, 300 mg, first dose, median) of 2.00 h, a Cmax (human, plasma, oral, 25 mg, Cohort 1, 25 mg BID, steady state C1D8, geometric mean) of 276 nM and an AUC(0-t) (human, plasma, oral, 25 mg, Cohort 1, 25 mg BID, steady state C1D8, geometric mean, read-out: AUC0-12 h (converted)) of 1.25 µM·h. For the same molecule, the Cmax (human, plasma, oral, 25 mg, Cohort 1, 25 mg BID, steady state C1D8, mean ± SD) was 307 ± 150 nM, the AUC(0-t) (human, plasma, oral, 25 mg, Cohort 1, 25 mg BID, steady state C1D8, mean ± SD, read-out: AUC0-12 h (converted)) was 1.27 ± 0.23 µM·h and the Cmax (human, plasma, oral, 25 mg, by dose, 25 mg BID, steady state C1D8, geometric mean) was 276 nM. It also gave an AUC(0-t) (human, plasma, oral, 25 mg, by dose, 25 mg BID, steady state C1D8, geometric mean, read-out: AUC0-12 h (converted)) of 1.25 µM·h, a Cmax (human, plasma, oral, 25 mg, by dose, 25 mg BID, steady state C1D8, mean ± SD) of 307 ± 150 nM and an AUC(0-t) (human, plasma, oral, 25 mg, by dose, 25 mg BID, steady state C1D8, mean ± SD, read-out: AUC0-12 h (converted)) of 1.27 ± 0.23 µM·h. It also gave a Cmax (human, plasma, oral, 50 mg, Cohort 2, 50 mg BID, steady state C1D8, geometric mean) of 550 nM, an AUC(0-t) (human, plasma, oral, 50 mg, Cohort 2, 50 mg BID, steady state C1D8, geometric mean, read-out: AUC0-12 h (converted)) of 2.34 µM·h and a Cmax (human, plasma, oral, 50 mg, Cohort 2, 50 mg BID, steady state C1D8, mean ± SD) of 603 ± 227 nM. It also gave an AUC(0-t) (human, plasma, oral, 50 mg, Cohort 2, 50 mg BID, steady state C1D8, mean ± SD, read-out: AUC0-12 h (converted)) of 2.53 ± 1.02 µM·h, an AUC(0-t) (human, plasma, oral, 50 mg, Cohort 2, 50 mg, first dose, geometric mean, read-out: AUC0-t) of 1.53 µM·h and a Cmax (human, plasma, oral, 50 mg, Cohort 2, 50 mg, first dose, mean ± SD) of 574 ± 216 nM. It also gave an AUC(0-t) (human, plasma, oral, 50 mg, Cohort 2, 50 mg, first dose, mean ± SD, read-out: AUC0-t) of 1.6 ± 0.507 µM·h, a Cmax (human, plasma, oral, 50 mg, Cohort 4 (MEL), 50 mg BID, steady state C1D8, geometric mean) of 403 nM and an AUC(0-t) (human, plasma, oral, 50 mg, Cohort 4 (MEL), 50 mg BID, steady state C1D8, geometric mean, read-out: AUC0-12 h (converted)) of 1.58 µM·h. The Cmax (human, plasma, oral, 50 mg, Cohort 4 (MEL), 50 mg BID, steady state C1D8, mean ± SD) was 442 ± 232 nM, the AUC(0-t) (human, plasma, oral, 50 mg, Cohort 4 (MEL), 50 mg BID, steady state C1D8, mean ± SD, read-out: AUC0-12 h (converted)) was 1.77 ± 1.12 µM·h and the tmax (human, plasma, oral, 50 mg, Cohort 4 (MEL), 50 mg BID, steady state C1D8, median, read-out: tmax) was 1.5 h. For the same molecule, the AUC(0-t) (human, plasma, oral, 50 mg, Cohort 4 (MEL), 50 mg, first dose, geometric mean, read-out: AUC0-t) was 1.2 µM·h, the AUC(0-t) (human, plasma, oral, 50 mg, Cohort 4 (MEL), 50 mg, first dose, mean ± SD, read-out: AUC0-t) was 1.32 ± 0.698 µM·h and the Cmax (human, plasma, oral, 50 mg, Cohort 4 (MEL), first dose, geometric mean) was 474 nM. For the same molecule, the Cmax (human, plasma, oral, 50 mg, Cohort 4 (MEL), first dose, mean ± SD) was 512 ± 224 nM, the AUC(0-t) (human, plasma, oral, 50 mg, by dose, 50 mg BID, steady state C1D8, geometric mean, read-out: AUC0-12 h (converted)) was 1.83 µM·h and the AUC(0-t) (human, plasma, oral, 50 mg, by dose, 50 mg BID, steady state C1D8, mean ± SD, read-out: AUC0-12 h (converted)) was 2.05 ± 1.12 µM·h. For the same molecule, the AUC(0-t) (human, plasma, oral, 50 mg, by dose, 50 mg, first dose, geometric mean, read-out: AUC0-t) was 1.33 µM·h, the AUC(0-t) (human, plasma, oral, 50 mg, by dose, 50 mg, first dose, mean ± SD, read-out: AUC0-t) was 1.43 ± 0.63 µM·h and the Cmax (human, plasma, oral, 50 mg, subjects with dose reduction before C4D1, 50 mg BID, C1D8, geometric mean) was 519 nM. For the same molecule, the Cmax (human, plasma, oral, 50 mg, subjects with dose reduction before C4D1, 50 mg BID, C1D8, mean ± SD) was 557 ± 260 nM and the Cmax (human, plasma, oral, 100 mg BID, All diagnoses, steady state C1D8, geometric mean) was 1010 nM.
